Conditions: Liquid, Capillary tube (Ostwald / Ubbelohde) method

CCCCCCCCCCCCCCCC [hexadecane]
Conditions | viscosity [mPa·s]
322.7 K, 1940 kPa | 1.885
323.7 K, 970 kPa | 1.857
323.7 K, 3000 kPa | 1.904
323.8 K, 1980 kPa | 1.878
323.8 K, 3910 kPa | 1.925
372.7 K, 990 kPa | 0.909
372.7 K, 1960 kPa | 0.922
372.8 K, 2970 kPa | 0.929
372.8 K, 3950 kPa | 0.947
373.9 K, 980 kPa | 0.896
373.9 K, 2000 kPa | 0.909
373.9 K, 2980 kPa | 0.915
373.9 K, 3900 kPa | 0.936
422.9 K, 1990 kPa | 0.554
422.9 K, 2970 kPa | 0.557
422.9 K, 3840 kPa | 0.568
471.9 K, 1000 kPa | 0.358
472 K, 2010 kPa | 0.363
472.1 K, 2910 kPa | 0.371
472.1 K, 3870 kPa | 0.374
473.7 K, 3990 kPa | 0.375
521.9 K, 970 kPa | 0.245
521.9 K, 1960 kPa | 0.254
521.9 K, 2950 kPa | 0.26
522 K, 3830 kPa | 0.267
572.1 K, 2930 kPa | 0.192
572.2 K, 2000 kPa | 0.187
572.2 K, 3850 kPa | 0.196
621.9 K, 2010 kPa | 0.131
622 K, 2890 kPa | 0.137
622.1 K, 3820 kPa | 0.142
623.2 K, 3990 kPa | 0.143
672.6 K, 3990 kPa | 0.104
673.2 K, 2000 kPa | 0.091
673.6 K, 3000 kPa | 0.097
